Reference: patent US20260209262A1, “MEMBRANE FILTRATION-ASSISTED SOLUTION PHASE OLIGONUCLEOTIDE SYNTHESIS” (EXACTMER LIMITED, priority 2022, published 2026)
In brackets after ≈: the same amount, converted by molar mass.

Assay: Solubility of protected phosphoramidites in acetonitrile (aliquots added until a clear solution)
Format: physicochemical
Details: for Solubility: 30° C.
Experimental: A range of 5′-O-Dmtr-nucleoside-3′-O-(cyanoethyl-N, N-diisopropyl) phosphoramidites (FIG. 1. compounds 1-5) were studied to determine their suitability for solution-phase oligonucleotide synthesis in acetonitrile. Each compound (ca. 0.5 g) was placed in a flask with a magnetic stirrer immersed in an oil bath held at 30° C. To the flask was added acetonitrile (0.200 mL) and the contents stirred for 2 min. After this, further aliquots of acetonitrile (0.050 mL) were added, each time followed by stirring for 2 min. The volume of acetonitrile required to establish a clear solution was recorded. The solubility so determined is recorded in Table 1.

Compound	Solubility [mM]	increase in solubility by protection of N3 (relative to unprotected 2a)	solubility in acetonitrile [mM]
COc1ccc(C(OC[C@H]2O[C@@H](n3ccc(=O)n(C(=O)c4ccccc4)c3=O)[C@H](OC)[C@@H]2OP(OCCC#N)N(C(C)C)C(C)C)(c2ccccc2)c2ccc(OC)cc2)cc1 (some centres unmarked) [Compound 1b]	1920 (≈ 1660 mg/mL)		
COc1ccc(C(OCC2OC(n3cnc4c(NC(=O)c5ccccc5)ncnc43)C(OC)C2OP(OCCC#N)N(C(C)C)C(C)C)(c2ccccc2)c2ccc(OC)cc2)cc1 (centres unmarked) [Compound 4]	1210 (≈ 1070 mg/mL)		
COc1ccc(C(OC[C@H]2O[C@@H](n3ccc(NC(C)=O)nc3=O)[C@H](OC)[C@@H]2OP(OCCC#N)N(C(C)C)C(C)C)(c2ccccc2)c2ccc(OC)cc2)cc1 (some centres unmarked) [Compound 3]	1300 (≈ 1040 mg/mL)		
COc1ccc(C(OCC2OC(n3ccc(=O)n(C(=O)c4ccc(C(C)(C)C)cc4)c3=O)C(OC)C2OP(OCCC#N)N(C(C)C)C(C)C)(c2ccccc2)c2ccc(OC)cc2)cc1 (centres unmarked) [Compound 1c]	1740 (≈ 1600 mg/mL)		
COc1ccc(C(OC[C@H]2O[C@@H](n3cc(C)c(=O)n(C(=O)c4ccccc4)c3=O)C[C@@H]2OP(OCCC#N)N(C(C)C)C(C)C)(c2ccccc2)c2ccc(OC)cc2)cc1 (some centres unmarked) [Compound 2b]	1530 (≈ 1300 mg/mL)	more than 30%	
COc1ccc(C(OCC2OC(n3cnc4c(=O)[nH]c(NC(=O)C(C)C)nc43)C(OC)C2OP(OCCC#N)N(C(C)C)C(C)C)(c2ccccc2)c2ccc(OC)cc2)cc1 (centres unmarked) [Compound 5]	1280 (≈ 1110 mg/mL)		
COc1ccc(C(OCC2OC(n3cc(C)c(=O)[nH]c3=O)CC2OP(OCCC#N)N(C(C)C)C(C)C)(c2ccccc2)c2ccc(OC)cc2)cc1 (centres unmarked) [Compound 2a]	1160 (≈ 864 mg/mL)		
COc1ccc(C(OC[C@H]2O[C@@H](n3ccc(=O)[nH]c3=O)[C@H](OC)[C@@H]2OP(OCCC#N)N(C(C)C)C(C)C)(c2ccccc2)c2ccc(OC)cc2)cc1 (some centres unmarked) [Compound 1a]	70 (≈ 53.3 mg/mL)		50 (≈ 38 mg/mL)
COc1ccc(C(=O)n2c(=O)ccn(C3OC(COC(c4ccccc4)(c4ccc(OC)cc4)c4ccc(OC)cc4)C(OP(OCCC#N)N(C(C)C)C(C)C)C3OC)c2=O)cc1 (centres unmarked) [Compound 1d]	2420 (≈ 2170 mg/mL)		
